Measured values reported in patent US9492471B2, “Methods of treating a disease or disorder associated with Bruton'S Tyrosine Kinase” (Celgene Avilomics Research, Inc., priority 2013, dated 2016).
Where two headings read alike, the source gives them in different places.

Tests used:
Test in all cases: HotSpot kinase profiling
Assay type in all cases: biochemical
[1] = biological target: T1, DMPK (Homo sapiens, UniProt Q09013)
T1 construct: purchased Reaction Biology Corp
T1 sequence (Q09013 1-629): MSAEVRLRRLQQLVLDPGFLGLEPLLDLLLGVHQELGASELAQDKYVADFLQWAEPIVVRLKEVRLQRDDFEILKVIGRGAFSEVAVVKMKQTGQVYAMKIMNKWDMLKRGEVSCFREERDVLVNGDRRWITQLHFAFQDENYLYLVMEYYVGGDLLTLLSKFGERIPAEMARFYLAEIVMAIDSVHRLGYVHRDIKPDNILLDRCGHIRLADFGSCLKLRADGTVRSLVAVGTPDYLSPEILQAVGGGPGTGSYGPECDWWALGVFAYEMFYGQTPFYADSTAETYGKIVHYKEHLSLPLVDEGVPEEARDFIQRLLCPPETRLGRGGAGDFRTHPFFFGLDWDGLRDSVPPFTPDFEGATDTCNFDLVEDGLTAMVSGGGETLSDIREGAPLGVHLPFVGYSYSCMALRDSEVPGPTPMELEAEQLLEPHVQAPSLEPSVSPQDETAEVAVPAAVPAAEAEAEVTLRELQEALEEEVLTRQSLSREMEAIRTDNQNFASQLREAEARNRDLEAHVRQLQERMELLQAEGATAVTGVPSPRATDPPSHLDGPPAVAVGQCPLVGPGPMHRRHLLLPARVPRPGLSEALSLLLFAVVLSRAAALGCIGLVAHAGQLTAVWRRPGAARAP
Method in brief: (§1)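 Activity is measured by radiolabel transfer captured on P81 filters after a 2 h room-temperature reaction of kinase, substrate and cofactors. Values are percent inhibition against DMSO.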

[2] = biological target: T2, GLK/MAP4K3 (Homo sapiens, UniProt Q8IVH8)
T2 construct: purchased Reaction Biology Corp
T2 sequence (Q8IVH8 1-894): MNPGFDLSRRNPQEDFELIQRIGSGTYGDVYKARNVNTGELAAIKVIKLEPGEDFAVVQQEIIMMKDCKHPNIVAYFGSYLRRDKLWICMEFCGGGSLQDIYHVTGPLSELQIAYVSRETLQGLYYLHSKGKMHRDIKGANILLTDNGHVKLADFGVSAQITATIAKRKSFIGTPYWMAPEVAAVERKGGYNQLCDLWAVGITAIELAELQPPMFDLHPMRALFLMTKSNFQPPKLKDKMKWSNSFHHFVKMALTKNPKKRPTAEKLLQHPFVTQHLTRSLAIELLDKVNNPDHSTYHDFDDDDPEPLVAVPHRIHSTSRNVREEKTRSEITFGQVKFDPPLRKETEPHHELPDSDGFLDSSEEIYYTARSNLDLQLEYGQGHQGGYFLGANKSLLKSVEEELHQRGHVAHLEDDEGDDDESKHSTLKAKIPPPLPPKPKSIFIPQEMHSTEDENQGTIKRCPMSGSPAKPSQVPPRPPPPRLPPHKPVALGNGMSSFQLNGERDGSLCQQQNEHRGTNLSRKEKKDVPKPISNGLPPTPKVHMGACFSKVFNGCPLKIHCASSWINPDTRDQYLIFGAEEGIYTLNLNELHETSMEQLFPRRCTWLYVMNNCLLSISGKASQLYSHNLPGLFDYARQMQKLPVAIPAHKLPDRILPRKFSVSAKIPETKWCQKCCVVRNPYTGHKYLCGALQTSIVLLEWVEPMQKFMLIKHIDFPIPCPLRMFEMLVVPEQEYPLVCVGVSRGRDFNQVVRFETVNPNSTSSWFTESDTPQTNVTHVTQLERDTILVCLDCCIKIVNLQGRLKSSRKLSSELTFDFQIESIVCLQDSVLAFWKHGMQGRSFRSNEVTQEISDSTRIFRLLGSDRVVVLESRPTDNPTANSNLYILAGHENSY
Method in brief: as §1

[3] = biological target: T3, MST2/STK3 (Homo sapiens, UniProt Q13188)
T3 construct: purchased Reaction Biology Corp
T3 sequence (Q13188 1-491): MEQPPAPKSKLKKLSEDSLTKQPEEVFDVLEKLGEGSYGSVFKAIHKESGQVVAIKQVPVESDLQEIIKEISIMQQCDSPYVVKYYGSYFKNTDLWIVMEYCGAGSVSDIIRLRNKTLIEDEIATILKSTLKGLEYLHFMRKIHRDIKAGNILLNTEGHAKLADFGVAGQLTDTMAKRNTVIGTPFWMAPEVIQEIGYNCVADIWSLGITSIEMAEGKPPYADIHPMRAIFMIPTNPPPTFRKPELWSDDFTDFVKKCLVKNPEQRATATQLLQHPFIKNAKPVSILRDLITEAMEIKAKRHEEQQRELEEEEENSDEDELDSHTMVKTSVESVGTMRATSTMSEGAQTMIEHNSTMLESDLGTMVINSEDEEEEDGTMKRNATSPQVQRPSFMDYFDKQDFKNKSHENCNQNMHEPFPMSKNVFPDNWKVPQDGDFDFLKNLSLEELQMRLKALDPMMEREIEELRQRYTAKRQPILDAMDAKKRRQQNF
Method in brief: as §1

[4] = biological target: T4, P70S6K/RPS6KB1 (Homo sapiens, UniProt P23443)
T4 construct: purchased Reaction Biology Corp
T4 sequence (P23443 whole entry): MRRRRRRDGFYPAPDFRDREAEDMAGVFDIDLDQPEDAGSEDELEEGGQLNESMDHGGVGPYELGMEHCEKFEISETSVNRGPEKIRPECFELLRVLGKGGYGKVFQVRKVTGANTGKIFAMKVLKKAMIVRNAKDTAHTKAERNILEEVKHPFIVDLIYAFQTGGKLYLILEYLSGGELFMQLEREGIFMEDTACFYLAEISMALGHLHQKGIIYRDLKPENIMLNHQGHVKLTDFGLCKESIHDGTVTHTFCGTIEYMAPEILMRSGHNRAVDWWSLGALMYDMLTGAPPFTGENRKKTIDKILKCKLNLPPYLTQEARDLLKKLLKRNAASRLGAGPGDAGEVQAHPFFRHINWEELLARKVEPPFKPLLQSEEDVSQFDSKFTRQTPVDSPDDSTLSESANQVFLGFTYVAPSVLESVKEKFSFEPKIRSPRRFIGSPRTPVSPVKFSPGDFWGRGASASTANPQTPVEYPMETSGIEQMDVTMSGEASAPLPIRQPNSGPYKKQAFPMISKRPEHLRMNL
Method in brief: as §1

[5] = read-out: % Enzyme Activity (relative to DMSO controls) Run 1
[6] = read-out: % Enzyme Activity (relative to DMSO controls) Run 2

C=CC(=O)Nc1cccc(Nc2nc(Nc3ccc(OCCOC)c(F)c3)ncc2F)c1 [Compound 2]
inhibition at 3 µM [1]: -3.25% | remaining activity at 3 µM [1, 5]: 104% | remaining activity at 3 µM [1, 6]: 102% | inhibition at 3 µM [2]: -5.08% | remaining activity at 3 µM [2, 5]: 102% | remaining activity at 3 µM [2, 6]: 108% | inhibition at 3 µM [3]: 10.1% | remaining activity at 3 µM [3, 5]: 91.1% | remaining activity at 3 µM [3, 6]: 88.6% | inhibition at 3 µM [4]: 16.5% | remaining activity at 3 µM [4, 5]: 85.9% | remaining activity at 3 µM [4, 6]: 81%
